Results on 77 compounds are retold here after ChEMBL document CHEMBL5441456, “ASAP - SARS-CoV-2 nsp3 macrodomain dose response” (2024).

Where “and” joins values, the source holds several entries; their conditions need not be identical. Identical values can stand only once. Bounds are passed on as bounds.

The assay addresses Replicase polyprotein 1ab (Severe acute respiratory syndrome coronavirus 2, UniProt P0DTD1). The assay can be described thus: Functional biochemical assay to identify treatments for viral infectious disease that targets SARS-COV-2 nsp3 macrodomain, whereby the mechanism of action displaces an ADP-Ribose modified peptide from the binding site. Utilizing a time-resolved fluorescence method to measure binding by reading the emitted fluorescence intensity in two wavelengths.
Consider `CC(C)[C@@H](Nc1ncnc2[nH]cc(C(=O)NC3CC3)c12)c1ccc2c(c1)S(=O)(=O)CCC2`, for which the IC50 is 260 nM and 145 nM and 150 nM.
Then `CC(C)[C@@H](Nc1ncnc2[nH]c(-c3cnn(CC(N)=O)c3)cc12)c1ccc2c(n1)OCCO2`, with 242 nM and 68 nM and 134 nM.
The same measure for `CNC(=O)c1cc2c(N[C@@H](c3ccc4c(c3)S(=O)(=O)CCC4)C(C)C)ncnc2[nH]1`: 52 nM (2×) and 78 nM and 24 nM and 48 nM and 38 nM and 35 nM and 60 nM; for `CC(C)[C@@H](Nc1ncnc2[nH]c(-c3cnn(CC(=O)N(C)C)c3)cc12)c1ccc2c(c1)S(=O)(=O)CCC2`: 39 nM and 55 nM and 30 nM and 26 nM and 45 nM and 29 nM and 33 nM; for `CC(C)[C@@H](Nc1ncnc2[nH]c(-c3ccoc3C#N)cc12)c1ccc2c(c1)OCCO2`: 2710 nM and 2670 nM.
Then `CC(C)[C@@H](Nc1ncnc2[nH]c(-c3cc(-c4ccccc4)n[nH]3)cc12)c1ccc2c(c1)OCCO2`, with greater than 99500 nM.
The compound `Cc1nnc(CNC(=O)c2cc3c(N[C@@H](c4ccc5c(c4)OCCO5)C(C)C)ncnc3[nH]2)o1` returned an IC50 of 1120 nM.
For `CC(C)[C@@H](Nc1ncnc2[nH]c(C(=O)NC3(CF)COC3)cc12)c1ccc2c(c1)OCCO2`, the IC50 was 1250 nM and 1740 nM.
Then `CC(C)[C@@H](Nc1ncnc2[nH]c(-c3cnn(C4(C(N)=O)CC4)c3)cc12)c1ccc2c(c1)OCCO2`, with 1040 nM and 1380 nM and 1310 nM.
As to `CC(C)[C@@H](Nc1ncnc2[nH]c([C@@H]3CCCNC3)cc12)c1ccc2c(c1)OCCO2`, the IC50 is 3490 nM and 5540 nM and 5190 nM.
For the compound `CC(C)[C@@H](Nc1ncnc2[nH]ccc12)c1ccc2c(c1)N(C)C(=O)CO2`, the IC50 was 67700 nM and 67400 nM.
Then `CC(C)[C@@H](Nc1ncnc2[nH]ccc12)c1ccc2cn[nH]c2c1`, with greater than 99500 nM.
`Cc1cc(CNC(=O)c2cc3c(N[C@@H](c4ccc5c(c4)OCCO5)C(C)C)ncnc3[nH]2)[nH]n1`: the half-maximal inhibitory concentration (IC50) was 1200 nM.
Then `CC(C)[C@@H](Nc1ncnc2[nH]c(-c3ccnn3C)cc12)c1ccc2c(c1)OCCO2`, with 699 nM and 883 nM and 832 nM; and `CCc1n[nH]cc1-c1cc2c(N[C@@H](c3ccc4c(c3)OCCO4)C(C)C)ncnc2[nH]1`, with 1190 nM and 961 nM.
Then `CC(C)[C@@H](Nc1ncnc2[nH]c(-c3cc[nH]c3)cc12)c1ccc2c(c1)OCCO2`, with 5340 nM and 4550 nM.
Then `CC(C)[C@@H](Nc1ncnc2[nH]c(-c3cnn(-c4ccc(F)cc4)c3)cc12)c1ccc2c(c1)OCCO2`, with 27400 nM and 26000 nM; and `COC(=O)c1coc(-c2cc3c(N[C@@H](c4ccc5c(c4)OCCO5)C(C)C)ncnc3[nH]2)c1`, with 9280 nM and 10700 nM and 10100 nM; and `CO[C@@H]1CCC[C@H]1NC(=O)c1cc2c(N[C@@H](c3ccc4c(c3)OCCO4)C(C)C)ncnc2[nH]1`, with 1010 nM and 1340 nM.
`CC(C)[C@@H](Nc1ncnc2[nH]c(-c3cnn(C)c3)cc12)c1ccc2c(c1)OCCO2`: the IC50 was 538 nM and 616 nM and 618 nM.
The same measure for `Cc1noc2ncc(-c3cc4c(N[C@@H](c5ccc6c(c5)OCCO6)C(C)C)ncnc4[nH]3)cc12`: 3730 nM and 3000 nM; for `CC(C)[C@@H](Nc1ncnc2[nH]c(-c3cnn(C4CC4)c3)cc12)c1ccc2c(c1)OCCO2`: 998 nM and 1230 nM and 1120 nM; for `Cc1n[nH]c(-c2cc3c(N[C@@H](c4ccc5c(c4)OCCO5)C(C)C)ncnc3[nH]2)c1C`: 5160 nM and 4510 nM.
As for `CC(C)[C@@H](Nc1ncnc2[nH]c(C(=O)NCCn3cncn3)cc12)c1ccc2c(c1)OCCO2`, the IC50 was 1780 nM.
For `Cc1nnn(C)c1-c1cc2c(N[C@@H](c3ccc4c(c3)OCCO4)C(C)C)ncnc2[nH]1`, the IC50 is 10100 nM and 8670 nM.
Then `Cc1occc1-c1cc2c(N[C@@H](c3ccc4c(c3)OCCO4)C(C)C)ncnc2[nH]1`, with 8540 nM and 8990 nM and 9510 nM; and `CC(C)[C@@H](Nc1ccnc2[nH]ncc12)c1ccc2c(c1)S(=O)(=O)CCC2`, with greater than 99500 nM.
Then `CC(C)[C@@H](Nc1ncnc2[nH]c(C(=O)Nc3cnccc3O)cc12)c1ccc2c(c1)OCCO2`, with 9980 nM and 17900 nM.
Then `CNC(=O)c1c[nH]c2ncnc(N[C@@H](c3ccc4c(c3)NC(=O)CO4)C(C)C)c12`, with 306 nM.
With `CC(C)[C@@H](Nc1ncnc2[nH]c(-c3ccco3)cc12)c1ccc2c(c1)OCCO2`, the IC50 was 6200 nM and 6100 nM.
Then `CCCn1nccc1-c1cc2c(N[C@@H](c3ccc4c(c3)OCCO4)C(C)C)ncnc2[nH]1`, with 2190 nM and 2450 nM and 2620 nM; and `CC(C)[C@@H](c1ccc2c(c1)OCCO2)N(C)c1ncnc2[nH]c(-c3cnn(CC(N)=O)c3)cc12`, with 20100 nM; and `Cc1ccoc1-c1cc2c(N[C@@H](c3ccc4c(c3)OCCO4)C(C)C)ncnc2[nH]1`, with 43900 nM and 39700 nM.
As for `CC(C)[C@@H](Nc1ncnc2[nH]c(-c3cncc(C(=O)N(C)C)c3)cc12)c1ccc2c(c1)OCCO2`, the IC50 was 746 nM and 819 nM.
The same measure for `CC(C)[C@@H](Nc1ncnc2[nH]c(-c3cccc(CN4CCS(=O)(=O)CC4)c3)cc12)c1ccc2c(c1)OCCO2`: 3250 nM and 3450 nM and 3570 nM; for `CC(C)[C@@H](Nc1ncnc2[nH]ccc12)c1ccc2c(c1)NC(=O)[C@@H](C)O2`: 2690 nM and 2900 nM; for `Cc1cnn(C)c1NC(=O)c1cc2c(N[C@@H](c3ccc4c(c3)OCCO4)C(C)C)ncnc2[nH]1`: 27300 nM and > 99500 nM.
Then `CCn1nccc1-c1cc2c(N[C@@H](c3ccc4c(c3)OCCO4)C(C)C)ncnc2[nH]1`, with 892 nM and 1420 nM and 1290 nM.
The same measure for `CC(C)[C@@H](Nc1ncnc2[nH]c(-c3cccc(Cn4ccnc4)c3)cc12)c1ccc2c(c1)OCCO2`: greater than 99500 nM.
`CNc1c[nH]c2ncnc(N[C@@H](c3ccc4c(c3)OCCO4)C(C)C)c12` came in with an IC50 of 28900 nM.
In the case of `CC(C)[C@@H](Nc1ncnc2[nH]c(-c3cnn([C@@H](C)C(N)=O)c3)cc12)c1ccc2c(c1)OCCO2`, the IC50 is 422 nM and 498 nM and 497 nM.
As for `Cc1c(-c2cc3c(N[C@@H](c4ccc5c(c4)OCCO5)C(C)C)ncnc3[nH]2)cnn1C`, the IC50 was 639 nM and 701 nM.
The same measure for `CC(C)[C@@H](Nc1ncnc2[nH]c(-c3cn(C)nc3C3CC3)cc12)c1ccc2c(c1)OCCO2`: 1190 nM; for `COCCNC(=O)c1c[nH]c2ncnc(N[C@@H](c3ccc4c(c3)S(=O)(=O)CCC4)C(C)C)c12`: 326 nM; for `CC(C)[C@@H](Nc1ncnc2[nH]c(-c3cnc4c(c3)CC(=O)N4)cc12)c1ccc2c(c1)OCCO2`: 1300 nM and 1510 nM.
`Cc1n[nH]c(C)c1-c1cc2c(N[C@@H](c3ccc4c(c3)OCCO4)C(C)C)ncnc2[nH]1` had an IC50 of 31700 nM.
As for `CC(C)[C@@H](Nc1cc(C(N)=O)ccn1)c1ccc2c(c1)S(=O)(=O)CCC2`, the half-inhibitory concentration (IC50) was greater than 99500 nM.
For `CC(C)[C@@H](Nc1ncnc2[nH]ccc12)c1ccc2nn[nH]c2c1`, the IC50 is 3500 nM and 4100 nM and 4030 nM.
Then `CC(C)[C@@H](Nc1ncnc2[nH]c(-c3cn[nH]c3)cc12)c1ccc2c(c1)OCCO2`, with 713 nM and 737 nM; and `COC(=O)c1cc(-c2cc3c(N[C@@H](c4ccc5c(c4)OCCO5)C(C)C)ncnc3[nH]2)c[nH]1`, with 4970 nM and 5000 nM; and `CNC(=O)c1cc2c(N[C@@H](c3ccc4c(c3)NC(=O)CO4)C(C)C)ncnc2[nH]1`, with 164 nM and 143 nM and 163 nM and 154 nM.
The same measure for `Cc1ncc(-c2cc3c(N[C@@H](c4ccc5c(c4)OCCO5)C(C)C)ncnc3[nH]2)n1C`: 674 nM and 711 nM; for `CC(C)[C@@H](Nc1ncnc2[nH]ccc12)c1ccc2c(n1)NC(=O)CO2`: 2610 nM and 2710 nM; for `Cc1ncc(-c2cc3c(N[C@@H](c4ccc5c(c4)OCCO5)C(C)C)ncnc3[nH]2)o1`: 1160 nM and 1350 nM and 1400 nM.
Regarding `CC(C)[C@@H](Nc1ncnc2[nH]c(-c3cnn(C4CCC4)c3)cc12)c1ccc2c(c1)OCCO2`, the IC50 was 1170 nM and 1520 nM and 1400 nM.
As to `Cc1ccc(-c2cc3c(N[C@@H](c4ccc5c(c4)OCCO5)C(C)C)ncnc3[nH]2)o1`, the IC50 is 40600 nM and 37600 nM.
Then `Cc1cn[nH]c1-c1cc2c(N[C@@H](c3ccc4c(c3)OCCO4)C(C)C)ncnc2[nH]1`, with 6780 nM and 8840 nM and 8770 nM.
Then `CC(C)[C@@H](Nc1ncnc2[nH]c(C3=CCCN(C(=O)OCc4ccccc4)C3)cc12)c1ccc2c(c1)OCCO2`, with greater than 99500 nM; and `CNc1cc(N[C@@H](c2ccc3c(c2)S(=O)(=O)CCC3)C(C)C)ncn1`, with 6080 nM; and `COCCn1cc(-c2cc3c(N[C@@H](c4ccc5c(c4)OCCO5)C(C)C)ncnc3[nH]2)c(C#N)n1`, with 676 nM and 868 nM.
As to `Cc1ccc([C@@H](Nc2ncnc3[nH]ccc23)C(C)C)cc1S(C)(=O)=O`, the IC50 was 7290 nM and 11300 nM.
With `CNC(=O)c1cccc(-c2cc3c(N[C@@H](c4ccc5c(c4)OCCO5)C(C)C)ncnc3[nH]2)c1`, the IC50 is 416 nM and 475 nM and 383 nM.
On to `CC(C)[C@@H](Nc1ncnc2[nH]c(-c3ccc(CC#N)cc3)cc12)c1ccc2c(c1)OCCO2`, for which the half-maximal inhibitory concentration (IC50) was 26400 nM and 28900 nM.
Then `CC(C)[C@@H](Nc1ncnc2[nH]c(-c3cnn(C(C)C)c3)cc12)c1ccc2c(c1)OCCO2`, with 757 nM and 962 nM and 864 nM.
On to `Cc1cc(-c2cc3c(N[C@@H](c4ccc5c(c4)OCCO5)C(C)C)ncnc3[nH]2)co1`, for which the IC50 is 8700 nM and 13600 nM and 17000 nM.
Then `CC(C)[C@@H](Nc1ncnc2[nH]c(-c3cnn(CC(N)=O)c3)cc12)c1ccc2c(n1)NC(=O)CO2`, with 250 nM and 302 nM and 355 nM; and `CC(C)[C@@H](c1ccc2c(c1)OCCO2)N(C)c1ncnc2[nH]c(Br)cc12`, with greater than 99500 nM; and `CC(C)[C@@H](Nc1ncnc2[nH]c(C(=O)NCCC3CN(C)C3)cc12)c1ccc2c(c1)OCCO2`, with 894 nM.
The same measure for `Cc1nn(C)cc1-c1cc2c(N[C@@H](c3ccc4c(c3)OCCO4)C(C)C)ncnc2[nH]1`: 411 nM and 493 nM and 469 nM; for `CC(C)[C@@H](Nc1ncnc2[nH]c(C(=O)O)cc12)c1ccc2c(c1)OCCO2`: 11700 nM and 11500 nM.
The same measure for `CC(C)[C@@H](Nc1ncnc2[nH]c(C(=O)NC3COC3)cc12)c1ccc2c(c1)OCCO2`: 743 nM and 1540 nM; for `CC(C)[C@@H](Nc1ncnc2[nH]c(C(=O)NC34CC(C#N)(C3)C4)cc12)c1ccc2c(c1)OCCO2`: 1360 nM and 1930 nM.
Take `CC(C)[C@@H](Nc1ncnc2[nH]c(C(=O)Nc3cn[nH]c3)cc12)c1ccc2c(c1)OCCO2`: the IC50 was 2570 nM.
The same measure for `CC(C)[C@@H](Nc1ncnc2[nH]c(-c3cnn(CC4(C#N)CC4)c3)cc12)c1ccc2c(c1)OCCO2`: 421 nM and 446 nM.
Consider `CC(C)[C@@H](Nc1ncnc2[nH]c(-c3ccnn3C(C)C)cc12)c1ccc2c(c1)OCCO2`, for which the half-inhibitory concentration (IC50) is 3020 nM and 2940 nM.
The same measure for `Cc1nn(CC(N)=O)cc1-c1cc2c(N[C@@H](c3ccc4c(c3)OCCO4)C(C)C)ncnc2[nH]1`: 330 nM and 341 nM; for `CC(C)[C@@H](Nc1ncnc2[nH]c(-c3cnn(C(C)C)n3)cc12)c1ccc2c(c1)OCCO2`: 1700 nM and 2130 nM.

The IC50 is the concentration that gives 50% inhibition. A high value points to a need for much substance.
